Reference: PMC9221546, “New Phenylglycinamide Derivatives with Hybrid Structure as Candidates for New Broad-Spectrum Anticonvulsants” (Cells, 2022)
Like-named read-outs stand apart in the source and are kept apart here. Marks after values point to notes of the source that are not given here.

Columns and labels:
[1] = system: 6 Hz (44 mA) seizures in mice; settings: i.p., pretreatment 0.5 h; cited from earlier work
[2] = system: 6 Hz (32 mA) seizures in mice; settings: i.p., pretreatment 0.5 h (LEV 1.0 h); cited from earlier work
[3] = system: MES-induced seizures in mice; settings: i.p., pretreatment 0.5 h (LEV 1.0 h); cited from earlier work
mice [4] = settings: i.p., acute neurological deficit, cited from earlier work
mice [5] = assay: Capsaicin-induced hypothermia model / core body temperature; format: in vivo; settings: i.p.; compound 60 50 mg/kg, BCTC 20 mg/kg, capsaicin 5 mg/kg
Experimental: Capsaicin was dissolved in 1% DMSO and administered at a dose of 5 mg/kg at a time point 0 min. Compound 60 and BCTC (positive control) were suspended in 1% Tween 80 and administered 15 min before capsaicin (at time point -15 min). All compounds were injected i.p. at a constant volume of 10 mL/kg. Control animals received the respective vehicles (1% DMSO or 1% Tween 80). Changes in the rectal temperature were measured using an electronic thermometer (ThermoWorks, Alpine, UT, USA) by inserting the rectal probe to a depth of ~2 cm into the rectum of the mouse. The measurements were taken at −15, 0, 15, 30, 60, 90, 120, and 180 min. The differences in the rectal temperature from baseline (time -15 min for groups receiving compound 60 and BCTC in combination with vehicle or time 0 min for groups receiving vehicle and capsaicin or compound 60 and BCTC in combination with capsaicin) to the respective time point ΔT (°C) were then calculated and analyzed. The results are shown in Figure 4 (see Section 3 Results and Discussion).
Figure 4 Effects of compound 60 and BCTC alone (A) or in combination with capsaicin (B) on the core body temperature in mice. Capsaicin (CPS) was injected at 0 min, as indicated by the arrow. Compound 60 or BCTC were administered 15 min prior to CPS injection. The temperature was measured at −15, 0, 15, 30, 60, 90, 120, and 180 min. Since body temperature returned to control values 60 min after CPS injection, subsequent measurements are not shown. Control animals received vehicles (1% DMSO or 1% Tween 80). All the compounds were administered i.p. Each experimental group consisted of seven to eight animals. The data are presented as the mean differences (ΔT) in rectal temperature from baseline (time −15 for A and time 0 for B) to the respective time point. The data were analyzed with one-way ANOVA followed by Tukey’s post hoc test. ** p < 0.01, *** p < 0.001, **** p < 0.0001 vs. the control group; ^#### p < 0.0001 vs. the CPS-treated group.

COC[C@@H](NC(C)=O)C(=O)NCc1ccccc1 [LCS, Lacosamide]
ED50 6 Hz (44 mA) [1]: 6.9 (5.4–8.6) mg/kg
ED50 6 Hz (32 mA) [2]: 5.3 (3.5−7.8) mg/kg
ED50 MES [3]: 9.2 (8.5−10.0) mg/kg

CC[C@@H](C(N)=O)N1CCCC1=O [LEV, Levetiracetam]
ED50 6 Hz (44 mA) [1]: 204.0 (154.5–269.5) mg/kg
ED50 MES [3]: >500 mg/kg
TD50 (rotarod test) (mice [4]; ref 32): >500 ** mg/kg
TD50 (rotarod test) (mice [4]; ref 34): >500 ** mg/kg

CCCC(CCC)C(=O)O [VPA, Valproic acid]
ED50 6 Hz (32 mA) [2]: 130.6 (117.6−145.2) mg/kg

COc1cc(CNC(=O)CCCC/C=C/C(C)C)ccc1O [capsaicin]
effect on rectal (core body) temperature, given alone (mice [5]): produced a significant drop in the rectal temperature
